Measured values taken from patent publication US8563683B2, “Synthetic lung surfactant and use thereof” (University of Rochester, priority 2006, dated 2013).

Columns and labels:
[1] = Surface activity on pulsating bubble surfactometer (minimum surface tension); format: physicochemical; settings: 37° C., 20 cycles/min, 50% area compression, lipid […] except SLM (1.0 mg/ml)
Protocol: Surfactant compositions were formulated using various molar or wt ratios of lipid analogs or naturally occurring lipids, with the addition of native lung surface proteins or synthetic peptides, and optionally a saturated free fatty acid in the indicated wt percentage based on the total weight of the intermediate lipid formulation. Surfactant compositions were dispersed in 0.15M NaCl+2 mM CaCl2 and placed in a sample chamber mounted on the pulsator unit of a bubble surfactometer. All surfactants were studied at a lipid concentration of 2.5 mg/ml, and in addition a mixture of synthetic ester-linked phospholipids (SLM) plus Super Mini-B was studied at a lipid concentration of 1 mg/ml.
A tiny air bubble was formed and pulsated between maximum and minimum radii of 0.55 and 0.4 mm, respectively, while the pressure drop across the air-water interface of the bubble was measured with a precision transducer. Surface tension was calculated from the measured pressure drop at minimum radius (0.4 mm) from the Laplace equation (Enhorning, “Pulsating Bubble Technique for Evaluation of Pulmonary Surfactant,” J Appl Physiol 43:198-203 (1977); Hall et al., “Approximations in the Measurement of Surface Tension with the Oscillating Bubble Surfactometer,” J Appl Physiol 75:468-477 (1993), each of which is hereby incorporated by reference in its entirety).
The high surface activity of synthetic lung surfactants containing DEPN-8 or 9:1 DEPN-8:PG-A or 9:1 DEPN-8:PG-B plus 1.5% by weight of Mini-B, FK20, or F4K is shown in Table 1. Activity is also shown for mixtures containing two glycerophospholipids found in endogenous lung surfactant, 8:2 (molar ratio) dipalmitoyl phosphatidylcholine (DPPC) and palmitoyl-oleoyl phosphatidylglycerol (POPG), with or without added synthetic peptides. Also studied is a synthetic lipid mixture containing 16:10:6:1:2 (by weight) DPPC, palmitoyl-oleoyl-phosphatidylcholine (POPC), POPG, palmitoyl-oleoyl-phosphatidylethanolamine (POPE), and cholesterol combined with Super Mini B (SEQ ID NO: 13). The surface activity of DEPN-8+1.5% bovine SP-B/C (mixture of bovine surfactant proteins B/C purified on a column from extracted calf lung surfactant) is additionally shown as a positive control. As described in the preceding paragraph, the surface activity measurements in Table 1 were obtained with a pulsating bubble surfactometer in vitro. Measurements of surface activity on this instrument reflect the combined effects of adsorption and dynamic film compression at a cycling rate (20 cycles/min), temperature (37° C.), and area compression (50% compression from maximum to minimum area) relevant for the mammalian lungs in vivo (Notter, Lung Surfactants: Basic Science and Clinical Applications, Marcel Dekker, Inc, New York (2000); Enhorning, “Pulsating Bubble Technique for Evaluation of Pulmonary Surfactant,” J Appl Physiol 43:198-203 (1977); Notter et al., “Pulmonary Surfactant: Physical Chemistry, Physiology and Replacement,” Rev Chem Eng 13:1-118 (1997), each of which is hereby incorporated by reference in its entirety). Prior publications have shown that assessments of surface activity on the bubble apparatus correlate well with the physiological activity of exogenous surfactants in animal lungs (see Notter, Lung Surfactants: Basic Science and Clinical Applications, Marcel Dekker, Inc, New York (2000); Notter et al., “Pulmonary Surfactant: Physical Chemistry, Physiology and Replacement,” Rev Chem Eng 13:1-118 (1997); Holm et al., “Effects of Hemoglobin and Cell Membrane Lipids on Pulmonary Surfactant Activity,” J Appl Physiol 63:1434-1442 (1987), each of which is hereby incorporated by reference in its entirety). […] The activity of these surfactant formulations of the present invention also approached or exceeded the positive control DEPN-8+1.5% bovine SP-B/C. […]

DEPN-8 = assay: Plasmon resonance (Biacore 3000) binding of lipid liposomes to peptide film; settings: DEPN-8 liposomes over peptide film on CM5 chip, 37° C.; read-out: dissociation constant KD (koff/kon)
Protocol: (§1) Super Mini-B peptide was also characterized in terms of its binding (association) affinity for lipids by plasmon resonance using a Biacore 3000 system (Biacore, Uppsala, Sweden). Peptide self-films were chemically-linked using a CM5 sensor chip (BR-1000-14, research grade), and lipid liposomes in running buffer were flowed over the chip to determine the degree of specific lipid association with the peptide film at 37° C. The off and on rates and dissociation constant KD (KD=koff/kon) were calculated by BIAevaluation Software Version 4.1.

[2] = target: dipalmitoyl phosphatidylcholine (DPPC); assay: as above; settings: DPPC liposomes over peptide film on CM5 chip, 37° C.; read-out: dissociation constant KD (koff/kon)
Protocol: as §1

In the case of `CCCCCCCCCCCCCCCCOCC(COP(=O)(O)CCC[N+](C)(C)C)OCCCCCCCCCCCCCCCC` (racemic) [DEPN-8, [(±)-trimethyl(3-phosphonopropyl)ammonium, mono(2,3-bis(hexadecyloxy)propyl ester]], the “Surface tension at minimum bubble radius at time 0.5 min” value ([1]; 0.5 min pulsation) is reported as 27 ± 2 mN/m, the “Surface tension at minimum bubble radius at time 1 min” value ([1]; 1 min pulsation) is reported as 21 ± 2 mN/m and the “Surface tension at minimum bubble radius at time 2 min” value ([1]; 2 min pulsation) is reported as 14 ± 2 mN/m. The “Surface tension at minimum bubble radius at time 5 min” value ([1]; 5 min pulsation) was 6 ± 1 mN/m, the “Surface tension at minimum bubble radius at time 10 min” value ([1]; 10 min pulsation) was 2 ± 1 mN/m and the “Surface tension at minimum bubble radius at time 15 min” value ([1]; 15 min pulsation) was <1 mN/m. The “Surface tension at minimum bubble radius at time […]” value ([1]; […] pulsation) was 32 ± 2 mN/m.
“FPIPLPYCWLCRALIKRIQAMIPKGGRMLPQLVCRLVLRCS [Super Mini-B]” gave a Kd (DEPN-8) of 63 nM and a Kd [2] of 769 nM.
